Measurements from patent US20150025034A1, “COMPOSITION FOR CARE AND HYGIENE OF THE AUDITORY CANAL” (LABORATOIRES GILBERT, priority 2012, published 2015).

Assay: In vitro assessment of the cerumenolytic effect on plugs of human cerumen
Conditions: 1 ml per 30 mg plug, 1 hour incubation, 37° C.
Experimental: The activity was assessed through the loss of weight of the plugs of cerumen caused by the dissolution of part of this plug, or more precisely the loss was calculated between the initial dry weight and the remaining dry weight after action of the product in the test.
Reference product: an aerosol spray based on pure sea water (nitrogen propellant), hereinafter referred to as T1, an aerosol spray containing sodium bicarbonate and polysorbate as active principles, hereinafter referred to as T2, and ultrapure water (type 1, Milli-Q water) are used as references. T1 and T2 are commercially available compositions used by way of compositions for the care and hygiene of the auditory channel and judged effective.
12 plugs of human cerumen, to a total weight of 1.55 grams, came from patients from the Ear, Nose and Throat Department of the Saint-Grégoire Hospital (35760). The plugs were mixed in order to obtain a homogeneous plug. […]
The effect sought is the dissolution of the plug. This dissolution is assessed by the loss of weight of the plug between the initial dry weight and the dry weight after incubation. […]
1 ml of composition CE1 and the reference compositions were added separately in previously weighed tubes and put in an oven at 90° C. for 48 hours in order to determine the quantity of dry residues of each composition. […]

O [pure water, water]
Dissolution of human cerumen (loss of dry weight of the plug): 51.5%
